Assays:
emerged weeds [1] = assay: Post-emergence application in greenhouse trials (scale 0 to 100; expected value by Colby); type: in vivo
Protocol: (§1) In the examples below, using the method of S. R. Colby (1967) “Calculating synergistic and antagonistic responses of herbicide combinations”, Weeds 15, p. 22ff., the value E, which is expected if the activity of the individual active compounds is only additive, was calculated:
(§2) [formula] • where • X=percent activity using active herbicide A at an application rate a; • Y=percent activity using active herbicide B (e.g. acetochlor) at an application rate b; • E=expected activity (in %) by A+B at application rates a+b.
(§3) If the value found experimentally is higher than the value E calculated according to Colby, a synergistic effect is present.
The culture containers used were plastic pots containing loamy sand with approximately 3.0% of humus as substrate. The seeds of the test plants were sown separately for each species.
[…] To this end, the test plants were either sown directly, and grown in the same containers, or they were first grown separately as seedlings and transplanted into the test containers a few days prior to treatment.
Depending on the species, the plants were kept at 10-25° C. and 20-35° C., respectively. The test period extended over 2 to 4 weeks. During this time, the plants were tended and their response to the individual treatments was evaluated.
(§4) Evaluation was carried out using a scale from 0 to 100. 100 means no emergence of the plants, or complete destruction of at least the above-ground parts, and 0 means no damage or normal course of growth. A good herbicidal activity is given at values of at least 70, and very good herbicidal activity is given at values of at least 85.
Herbicide A-1 and acetochlor were, together with addition of 0.5% MSO (methylated sed oil) as adjuvant, formulated in water as distribution medium (water volume 200 l/ha) and sprayed with commercial flat fan nozzles.
Herbicide A-1, acetochlor and mesotrione were, together with addition of 0.5 v/v % MSO (methylated sed oil) as adjuvant, formulated in water as distribution medium (water volume 200 l/ha) and sprayed with commercial flat fan nozzles.
Herbicide A-1, acetochlor and topramezone were, together with addition of 0.5 v/v % MSO (methylated sed oil) as adjuvant, formulated in water as distribution medium (water volume 200 l/ha) and sprayed with commercial flat fan nozzles.

emerged weeds [2] = assay: Post-emergence application in field trials (expected value by Colby); type: in vivo
Protocol: as §1, §2, §3, §4
Herbicide A-1 and acetochlor were, together with addition of 0.25% MSO (methylated sed oil) as adjuvant, formulated in water as distribution medium (water volume 200 l/ha) and sprayed with commercial flat fan nozzles.

[3] = ABUTH, growth stage 15, 7 DAT, g ai/ha: A-1 0.5, B 200, C-24 50
[4] = ABUTH, growth stage 15, 7 DAT, g ai/ha: A-1 0.5, B 200, C-25 3.125
[5] = ABUTH, growth stage 15, 21 DAT, g ai/ha: A-1 0.25, B 200, C-24 50
[6] = AVEFA, growth stage 11, 7 DAT, g ai/ha: A-1 2, B 200, C-25 3.125
[7] = AVEFA, growth stage 11, 21 DAT, g ai/ha: A-1 2, B 200, C-24 50
[8] = AVEFA, growth stage 11, 21 DAT, g ai/ha: A-1 2, B 200, C-25 3.125
[9] = AVEFA, growth stage 12, 7 DAT, g ai/ha: A-1 2, B 400
[10] = AVEFA, growth stage 12, 19 DAT, g ai/ha: A-1 2, B 400
[11] = BRADC, growth stage 11, 21 DAT, g ai/ha: A-1 2, B 200, C-25 3.125
[12] = COMBE, growth stage 13, 21 DAT, g ai/ha: A-1 1, B 200, C-24 50
[13] = COMBE, growth stage 13, 21 DAT, g ai/ha: A-1 1, B 200, C-25 3.125
[14] = ECHCG, growth stage 12, 21 DAT, g ai/ha: A-1 2, B 200, C-24 50
[15] = ECHCG, growth stage 12, 21 DAT, g ai/ha: A-1 2, B 200, C-25 3.125
[16] = ECHCG, growth stage 13, 7 DAT, g ai/ha: A-1 0.5, B 400
[17] = ECHCG, growth stage 13, 19 DAT, g ai/ha: A-1 0.5, B 400
[18] = ELEIN, growth stage 14, 7 DAT, g ai/ha: A-1 2, B 400
[19] = ERICA, growth stage 19, 7 DAT, g ai/ha: A-1 2, B 200, C-25 3.125
[20] = GLXMA, growth stage 18, 7 DAT, g ai/ha: A-1 1, B 200, C-25 3.125
[21] = KCHSC, growth stage 29, 21 DAT, g ai/ha: A-1 1, B 200, C-25 3.125
[22] = KCHSC, growth stage 29, 21 DAT, g ai/ha: A-1 2, B 200, C-25 3.125
[23] = LOLMU, growth stage 11, 7 DAT, g ai/ha: A-1 2, B 200, C-25 3.125
[24] = LOLMU, growth stage 11, 21 DAT, g ai/ha: A-1 2, B 200, C-25 3.125
[25] = ZEAMX, growth stage 12, 21 DAT, g ai/ha: A-1 2, B 200, C-24 50
[26] = ZEAMX, growth stage 12, 21 DAT, g ai/ha: A-1 2, B 200, C-25 3.125
[27] = AMARE, growth stage 31-49, height 10-12 cm, 7 DAT, g ai/ha: A-1 12.5, B 1050
[28] = AMARE, growth stage 31-49, height 10-12 cm, 21 DAT, g ai/ha: A-1 12.5, B 1050
[29] = DIGSA, growth stage 22, height 10-15 cm, 7 DAT, g ai/ha: A-1 12.5, B 1050
[30] = DIGSA, growth stage 22, height 10-15 cm, 21 DAT, g ai/ha: A-1 12.5, B 1050
[31] = DIGSA, growth stage 22, height 10-15 cm, 42 DAT, g ai/ha: A-1 12.5, B 1050
[32] = ECHCG, growth stage 22-23, height 19-30 cm, 7 DAT, g ai/ha: A-1 12.5, B 1050
[33] = ECHCG, growth stage 22-23, height 19-30 cm, 7 DAT, g ai/ha: A-1 18, B 1050
[34] = ECHCG, growth stage 22-23, height 19-30 cm, 21 DAT, g ai/ha: A-1 12.5, B 1050
[35] = ECHCG, growth stage 22-23, height 19-30 cm, 21 DAT, g ai/ha: A-1 18, B 1050
[36] = ECHCG, growth stage 22-23, height 19-30 cm, 42 DAT, g ai/ha: A-1 12.5, B 1050
[37] = ECHCG, growth stage 22-23, height 19-30 cm, 42 DAT, g ai/ha: A-1 18, B 1050
[38] = GLXMA, growth stage 12-13, height 7-11 cm, 42 DAT, g ai/ha: A-1 18, B 1050
[39] = HORVW, growth stage 23-29, height 20-25 cm, 21 DAT, g ai/ha: A-1 12.5, B 1050
[40] = HORVW, growth stage 23-29, height 20-25 cm, 21 DAT, g ai/ha: A-1 18, B 1050
[41] = HORVW, growth stage 23-29, height 20-25 cm, 28 DAT, g ai/ha: A-1 12.5, B 1050
[42] = HORVW, growth stage 23-29, height 20-25 cm, 28 DAT, g ai/ha: A-1 18, B 1050
[43] = ZEAMX, growth stage 15-16, height 50-60 cm, 7 DAT, g ai/ha: A-1 12.5, B 1050
[44] = ZEAMX, growth stage 15-16, height 50-60 cm, 21 DAT, g ai/ha: A-1 12.5, B 1050
[45] = ZEAMX, growth stage 15-16, height 50-60 cm, 28 DAT, g ai/ha: A-1 12.5, B 1050
[46] = ZEAMX, growth stage 15-16, height 50-60 cm, 28 DAT, g ai/ha: A-1 18, B 1050

CCOC(=O)COc1ccccc1Oc1nc(-n2c(=O)cc(C(F)(F)F)n(C)c2=O)c(F)cc1Cl [A-1, ethyl 2-[2-[[3-chloro-5-fluoro-6-[3-methyl-2,6-dioxo-4-(trifluoromethyl)pyrimidin-1-yl]-2-pyridyl]oxy]phenoxy]acetate]
% Herbicidal activity (emerged weeds [1]; [3]): 85%
% Herbicidal activity (emerged weeds [1]; [4]): 85%
% Herbicidal activity (emerged weeds [1]; [5]): 60%
% Herbicidal activity (emerged weeds [1]; [6]): 55%
% Herbicidal activity (emerged weeds [1]; [7]): 30%
% Herbicidal activity (emerged weeds [1]; [8]): 30%
% Herbicidal activity (emerged weeds [1]; [9]): 75%
% Herbicidal activity (emerged weeds [1]; [10]): 75%
% Herbicidal activity (emerged weeds [1]; [11]): 30%
% Herbicidal activity (emerged weeds [1]; [12]): 80%
% Herbicidal activity (emerged weeds [1]; [13]): 80%
% Herbicidal activity (emerged weeds [1]; [14]): 30%
% Herbicidal activity (emerged weeds [1]; [15]): 30%
% Herbicidal activity (emerged weeds [1]; [16]): 40%
% Herbicidal activity (emerged weeds [1]; [17]): 15%
% Herbicidal activity (emerged weeds [1]; [18]): 75%
% Herbicidal activity (emerged weeds [1]; [19]): 80%
% Herbicidal activity (emerged weeds [1]; [20]): 90%
% Herbicidal activity (emerged weeds [1]; [21]): 60%
% Herbicidal activity (emerged weeds [1]; [22]): 75%
% Herbicidal activity (emerged weeds [1]; [23]): 10%
% Herbicidal activity (emerged weeds [1]; [24]): 10%
% Herbicidal activity (emerged weeds [1]; [25]): 40%
% Herbicidal activity (emerged weeds [1]; [26]): 40%
% Herbicidal activity (emerged weeds [2]; [27]): 95%
% Herbicidal activity (emerged weeds [2]; [28]): 80%
% Herbicidal activity (emerged weeds [2]; [29]): 75%
% Herbicidal activity (emerged weeds [2]; [30]): 70%
% Herbicidal activity (emerged weeds [2]; [31]): 70%
% Herbicidal activity (emerged weeds [2]; [32]): 55%
% Herbicidal activity (emerged weeds [2]; [33]): 55%
% Herbicidal activity (emerged weeds [2]; [34]): 50%
% Herbicidal activity (emerged weeds [2]; [35]): 55%
% Herbicidal activity (emerged weeds [2]; [36]): 45%
% Herbicidal activity (emerged weeds [2]; [37]): 50%
% Herbicidal activity (emerged weeds [2]; [38]): 85%
% Herbicidal activity (emerged weeds [2]; [39]): 70%
% Herbicidal activity (emerged weeds [2]; [40]): 80%
% Herbicidal activity (emerged weeds [2]; [41]): 95%
% Herbicidal activity (emerged weeds [2]; [42]): 95%
% Herbicidal activity (emerged weeds [2]; [43]): 80%
% Herbicidal activity (emerged weeds [2]; [44]): 70%
% Herbicidal activity (emerged weeds [2]; [45]): 40%
% Herbicidal activity (emerged weeds [2]; [46]): 70%

CCOCN(C(=O)CCl)c1c(C)cccc1CC [B, acetochlor]
% Herbicidal activity (emerged weeds [1]; [3]): 0%
% Herbicidal activity (emerged weeds [1]; [4]): 0%
% Herbicidal activity (emerged weeds [1]; [5]): 0%
% Herbicidal activity (emerged weeds [1]; [6]): 0%
% Herbicidal activity (emerged weeds [1]; [7]): 0%
% Herbicidal activity (emerged weeds [1]; [8]): 0%
% Herbicidal activity (emerged weeds [1]; [9]): 0%
% Herbicidal activity (emerged weeds [1]; [10]): 0%
% Herbicidal activity (emerged weeds [1]; [11]): 5%
% Herbicidal activity (emerged weeds [1]; [12]): 5%
% Herbicidal activity (emerged weeds [1]; [13]): 5%
% Herbicidal activity (emerged weeds [1]; [14]): 5%
% Herbicidal activity (emerged weeds [1]; [15]): 5%
% Herbicidal activity (emerged weeds [1]; [16]): 10%
% Herbicidal activity (emerged weeds [1]; [17]): 60%
% Herbicidal activity (emerged weeds [1]; [18]): 0%
% Herbicidal activity (emerged weeds [1]; [19]): 15%
% Herbicidal activity (emerged weeds [1]; [20]): 0%
% Herbicidal activity (emerged weeds [1]; [21]): 0%
% Herbicidal activity (emerged weeds [1]; [22]): 0%
% Herbicidal activity (emerged weeds [1]; [23]): 0%
% Herbicidal activity (emerged weeds [1]; [24]): 0%
% Herbicidal activity (emerged weeds [1]; [25]): 5%
% Herbicidal activity (emerged weeds [1]; [26]): 5%
% Herbicidal activity (emerged weeds [2]; [27]): 40%
% Herbicidal activity (emerged weeds [2]; [28]): 25%
% Herbicidal activity (emerged weeds [2]; [29]): 10%
% Herbicidal activity (emerged weeds [2]; [30]): 10%
% Herbicidal activity (emerged weeds [2]; [31]): 10%
% Herbicidal activity (emerged weeds [2]; [32]): 0%
% Herbicidal activity (emerged weeds [2]; [33]): 0%
% Herbicidal activity (emerged weeds [2]; [34]): 0%
% Herbicidal activity (emerged weeds [2]; [35]): 0%
% Herbicidal activity (emerged weeds [2]; [36]): 0%
% Herbicidal activity (emerged weeds [2]; [37]): 0%
% Herbicidal activity (emerged weeds [2]; [38]): 20%
% Herbicidal activity (emerged weeds [2]; [39]): 10%
% Herbicidal activity (emerged weeds [2]; [40]): 10%
% Herbicidal activity (emerged weeds [2]; [41]): 10%
% Herbicidal activity (emerged weeds [2]; [42]): 10%
% Herbicidal activity (emerged weeds [2]; [43]): 8%
% Herbicidal activity (emerged weeds [2]; [44]): 0%
% Herbicidal activity (emerged weeds [2]; [45]): 0%
% Herbicidal activity (emerged weeds [2]; [46]): 0%

CS(=O)(=O)c1ccc(C(=O)C2C(=O)CCCC2=O)c([N+](=O)[O-])c1 [C-24, mesotrione]
% Herbicidal activity (emerged weeds [1]; [3]): 60%
% Herbicidal activity (emerged weeds [1]; [5]): 90%
% Herbicidal activity (emerged weeds [1]; [7]): 10%
% Herbicidal activity (emerged weeds [1]; [12]): 90%
% Herbicidal activity (emerged weeds [1]; [14]): 95%
% Herbicidal activity (emerged weeds [1]; [25]): 0%

Cc1c(C(=O)c2cnn(C)c2O)ccc(S(C)(=O)=O)c1C1=NOCC1 [C-25, topramezone]
% Herbicidal activity (emerged weeds [1]; [4]): 50%
% Herbicidal activity (emerged weeds [1]; [6]): 10%
% Herbicidal activity (emerged weeds [1]; [8]): 10%
% Herbicidal activity (emerged weeds [1]; [11]): 55%
% Herbicidal activity (emerged weeds [1]; [13]): 35%
% Herbicidal activity (emerged weeds [1]; [15]): 80%
% Herbicidal activity (emerged weeds [1]; [19]): 35%
% Herbicidal activity (emerged weeds [1]; [20]): 20%
% Herbicidal activity (emerged weeds [1]; [21]): 10%
% Herbicidal activity (emerged weeds [1]; [22]): 10%
% Herbicidal activity (emerged weeds [1]; [23]): 0%
% Herbicidal activity (emerged weeds [1]; [24]): 0%
% Herbicidal activity (emerged weeds [1]; [26]): 0%

From patent US12599134B2, “Herbicidal compositions comprising acetochlor” (BASF SE, priority 2024, dated 2026)
